Data reported in ChEMBL document CHEMBL3621060, “Synthesis and anticancer activities of novel 8-azapurine carbocyclic nucleoside hydrazones” (Bioorg Med Chem Lett, 2015).
pEC50, pIC50: −log10 of the molar value.

Assays:
[1] = Anticancer activity against human HuH7 cells assessed as inhibition of cell growth at 10 uM incubated for 4 days by CCK8 assay; type: functional; conditions: Huh-7, 96 h, read-out: GI
A549 = test: Anticancer activity against human A549 cells assessed as inhibition of cell growth at 10 uM incubated for 4 days by CCK8 assay; type: functional; conditions: A549, 96 h, read-out: GI
P388 = test: Cytotoxicity against mouse P388 cells; type: functional; conditions: read-out: ED50 (the source's name)
[2] = Anticancer activity against human HuH7 cells assessed as inhibition of cell growth incubated for 4 days by CCK8 assay; type: functional, cell-based; conditions: Huh-7, 96 h

SMILES	inhibition of growth at 10 µM [1]	inhibition of growth at 10 µM (A549)	pEC50 (P388)	pIC50 [2]
CCCSc1nc(N/N=C/c2ccccc2O)c2nnn([C@@H]3C[C@H](O)[C@@H](O)[C@H]3O)c2n1	34.5%	24.3%	–	–
CCCSc1nc(N/N=C/c2ccccn2)c2nnn([C@@H]3C[C@H](O)[C@@H](O)[C@H]3O)c2n1	52.5%	38.6%	–	–
CCCSc1nc(N/N=C/c2cccc([N+](=O)[O-])c2)c2nnn([C@@H]3C[C@H](O)[C@@H](O)[C@H]3O)c2n1	58.5%	68%	–	–
CCCSc1nc(N/N=C/c2ccc(O)cc2O)c2nnn([C@@H]3C[C@H](O)[C@@H](O)[C@H]3O)c2n1	38.3%	33%	–	–
CCCSc1nc(N/N=C/c2cccc(O)c2)c2nnn([C@@H]3C[C@H](O)[C@@H](O)[C@H]3O)c2n1	36.5%	21.4%	–	–
CCCSc1nc(N/N=C/c2ccc(O)cc2)c2nnn([C@@H]3C[C@H](O)[C@@H](O)[C@H]3O)c2n1	43.8%	32.3%	–	–
CCCSc1nc(N/N=C/c2ccc(Cl)cc2Cl)c2nnn([C@@H]3C[C@H](O)[C@@H](O)[C@H]3O)c2n1	51.2%	41.6%	–	–
CCCSc1nc(N/N=C/c2cccs2)c2nnn([C@@H]3C[C@H](O)[C@@H](O)[C@H]3O)c2n1	50%	38.8%	–	–
CCCSc1nc(N/N=C/c2ccc(Cl)cc2)c2nnn([C@@H]3C[C@H](O)[C@@H](O)[C@H]3O)c2n1	47.8%	34.2%	–	–
CCCSc1nc(N/N=C/c2ccccc2Cl)c2nnn([C@@H]3C[C@H](O)[C@@H](O)[C@H]3O)c2n1	37.7%	30.5%	–	–
CCCSc1nc(N/N=C/c2ccc(OC)c(OC)c2)c2nnn([C@@H]3C[C@H](O)[C@@H](O)[C@H]3O)c2n1	26.9%	28.9%	–	–
CCCSc1nc(N/N=C/c2ccc(F)c(F)c2)c2nnn([C@@H]3C[C@H](O)[C@@H](O)[C@H]3O)c2n1	31.5%	26.9%	–	–
CCCSc1nc(N/N=C/c2ccccc2OC)c2nnn([C@@H]3C[C@H](O)[C@@H](O)[C@H]3O)c2n1	43.8%	31.6%	–	–
Nc1ncnc2c1nnn2[C@@H]1C[C@H](CO)[C@H](O)[C@H]1O	–	–	6.42	–
CCCSc1nc(N/N=C/c2ccccc2)c2nnn([C@@H]3C[C@H](O)[C@@H](O)[C@H]3O)c2n1	20.1%	22.9%	–	–
CCCSc1nc(N/N=C/c2ccc([N+](=O)[O-])cc2)c2nnn([C@@H]3C[C@H](O)[C@@H](O)[C@H]3O)c2n1	68%	67.6%	–	4.93
CCCSc1nc(N/N=C/c2ccc(OC)cc2)c2nnn([C@@H]3C[C@H](O)[C@@H](O)[C@H]3O)c2n1	57.3%	69.2%	–	–
O=c1[nH]cc(F)c(=O)[nH]1 [FLUOROURACIL]	78.7%	64.5%	–	–
